These results are taken from patent US6608106B2 (Sloan-Kettering Institute for Cancer Research, priority 1997, dated 2003).

Molecules are shown by their SMILES. Read-outs that look alike come from different tables or passages of the source.

Series [1] has as its system murine stroke (right middle cerebral artery occlusion). As to the kind of experiment: Reperfused stroke: reversible (45 minutes) right middle cerebral artery occlusion. Format: in vivo, C57/6J BL mice. The settings on record: for cerebral infarct volume (percentage of the ipsilateral hemisphere): 24 hours. On the procedure:
(§1) Dithiothreitol (0.1 mmol/L) was then added separately to both DHA and ascorbate prior to use as a reducing agent. For experiments examining the effect of focal cerebal ischemia on the DHA's ability to: (1) cross the blood-brain barrier and, (2) protect cerebral tissue, we employed an intraluminal murine model of reversible (45 minutes) or permanent (24 h) right middle cerebral artery occlusion. (12) Anesthetized normothermic C57/6J BL mice were treated prior to ischemia via penile injection with either high dose DHA (250 mg/kg), low dose DHA (40 mg/kg), ascorbate (250 mg/kg), or sucrose (a non-metabolized, non-transportable marker of plasma volume). All animals underwent transcranial laser doppler measurement of cortical cerebral blood flow perioperatively. […] (11) In contrast, the experimental cohorts were followed for 24 hours and underwent pre-sacrifice neurological examination, as previously described. 13 Infarct volumes were calculated by digital analysis of serial, 2,3,5-triphenyltetrazolium-stained, sections, with volumes expressed as percentage of the ipsilateral hemisphere.^12 There were 67 animals in the reperfusion cohort (including vehicle, 40 mg/kg DHA, 250 mg/kg DHA, and 250 mg/kg ascorbate cohorts) and 54 animals in the nonreperfused cohort (including vehicle, 250 mg/kg DHA, and 250 mg/kg ascorbate cohorts). Comparisons were made between groups with a two-tailed Student t-test for unpaired variable. All studies were performed in accordance with an institutionally approved animal protocol.

Series [2] is described as follows: Tracer studies of brain accumulation in focal cerebral ischemia. It is filed as in vivo, C57/6J BL mice. The settings on record: ischemic animals, 10 minutes or two hours of focal ischemia. As to the method:
as §1

For series [3], the system named is murine stroke (right middle cerebral artery occlusion). As to the kind of experiment: Non-reperfused stroke: permanent (24 h) right middle cerebral artery occlusion. Format: in vivo, C57/6J BL mice. The settings on record: 250 mg/kg. On the procedure:
as §1
Since clinical therapeutic antioxidant strategies might be employed prior to hospitalization and reperfusion, we examined the effect of high-dose DHA on non-reperfused stroke as well. […] This improved perfusion was associated with similar reductions in infarct volume (51±6% vehicle, 46±6% AA, and 26±5% high-DHA, p<0.01 vs. vehicle), and sacrifice neurological deficit scores (3.0±0.3% vehicle, 3.2±0.4% AA, and 1.9±0.2% high-DHA; p<0.005 for DHA vs. either control). As in the setting of reperfusion, DHA reduced mortality by nearly 50% (50% vehicle, 64% AA, and 30% high-DHA.

For series [4] the following is noted: in vivo.
The conditions of series [5]: rat.
The conditions of series [6]: previous studies (11); cited from earlier work.
The conditions of series [7]: mouse, in vivo; for serum radioactivity concentration: 15 seconds.
The test system of the next series is HL60 cells. The settings on record: read-out: apparent Km for transport; cited from earlier work.
For series [8] the following is noted: cited from earlier work.
A short description of series [9]: Carotid artery infusion of dehydroascorbic acid: loading of vitamin C into the brain. It is filed as in vivo. The settings on record: 24 mg into carotid artery over forty minutes, rat. On the procedure:
An experiment was done in which the carotid artery of a subject rat was cannulated with a catheter and 24 mg of dehydroascorbic acid was injected into the artery. The injected dehydroascorbic acid was spiked with a tracer amount of radioactive (^14C-labeled) dehydroascorbic acid. The dehydroascorbic acid was infused over forty minutes and the brain was harvested. The amount of radioactive vitamin C was quantitated in the brain and total amount of injected vitamin C that accumulated in the brain was thus extrapolated. […] It is of note that the total vitamin C concentration in the normal adult rat brain is approximately 150 μg. A log-fold greater Vitamin C than baseline normal concentration of Vitamin C was thus achieved.

Series [10] addresses T1, GLUT1 (Homo sapiens, UniProt P11166).
T1 sequence (P11166 1-492): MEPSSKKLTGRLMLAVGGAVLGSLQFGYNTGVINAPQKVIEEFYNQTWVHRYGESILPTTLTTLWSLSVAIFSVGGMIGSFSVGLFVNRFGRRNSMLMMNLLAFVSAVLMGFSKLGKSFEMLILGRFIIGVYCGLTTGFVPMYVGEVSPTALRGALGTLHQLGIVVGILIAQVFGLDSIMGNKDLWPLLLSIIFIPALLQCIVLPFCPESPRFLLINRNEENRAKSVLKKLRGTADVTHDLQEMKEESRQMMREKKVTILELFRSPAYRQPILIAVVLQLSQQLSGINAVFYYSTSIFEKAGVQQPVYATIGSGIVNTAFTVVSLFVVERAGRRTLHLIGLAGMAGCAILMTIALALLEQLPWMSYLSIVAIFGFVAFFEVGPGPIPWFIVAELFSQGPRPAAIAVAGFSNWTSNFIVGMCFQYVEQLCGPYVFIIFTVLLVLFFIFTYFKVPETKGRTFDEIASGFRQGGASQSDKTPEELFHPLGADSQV
The settings on record: in vitro data; cited from earlier work.

Series [11] deals with T2, GLUT1 (Mus musculus, UniProt P17809).
T2 sequence (P17809 1-492): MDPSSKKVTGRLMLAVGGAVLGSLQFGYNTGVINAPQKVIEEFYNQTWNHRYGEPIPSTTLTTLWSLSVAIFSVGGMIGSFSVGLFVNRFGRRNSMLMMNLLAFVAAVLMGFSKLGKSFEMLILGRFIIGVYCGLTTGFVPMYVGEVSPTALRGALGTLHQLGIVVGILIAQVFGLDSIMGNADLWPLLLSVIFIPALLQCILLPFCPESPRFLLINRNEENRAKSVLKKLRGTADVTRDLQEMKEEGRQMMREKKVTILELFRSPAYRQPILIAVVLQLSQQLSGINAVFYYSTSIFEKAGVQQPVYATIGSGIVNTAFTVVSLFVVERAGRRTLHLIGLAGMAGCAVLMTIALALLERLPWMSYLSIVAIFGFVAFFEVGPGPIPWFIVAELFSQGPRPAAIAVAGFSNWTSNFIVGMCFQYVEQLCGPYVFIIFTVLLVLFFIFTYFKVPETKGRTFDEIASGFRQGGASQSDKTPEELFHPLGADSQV
The settings on record: dose-dependent, 30-second time course, mice.

For series [12] the following is noted: 60 mg daily, human volunteers; cited from earlier work.
Where [13] appears, read: low dose 40 mg/kg pre-treatment.

`O=C1O[C@H]([C@@H](O)CO)C(=O)C1=O` [dehydroascorbic acid]: in series [1] (250 mg/kg pre-treatment), the neurological deficit score is on record as 1.9±0.2, the overall mortality stood at 27%, the post-ischemic cerebral perfusion is listed as 40±4% and the “cerebral infarct volume (percentage of the ipsilateral hemisphere)” value is 12±4%. Moreover, in series [1] (setting [13]), the neurological deficit score came to 1.6±0.2, the overall mortality is listed as 24%, the post-ischemic cerebral perfusion amounted to 28±2% and the “cerebral infarct volume (percentage of the ipsilateral hemisphere)” value came out at 22±4%. Further, the “accumulation, percent of injected dose (TD) per gram of brain tissue” value in [2] is given as roughly 4%. In series [3], the infarct volume was determined as 26±5%; the mortality (in general, the share of the test organisms that died) worked out at 30%; the “pre-sacrifice regional cerebral cortical perfusion” value is recorded as 30±3%. In [3] (vs. controls), the reduction of mortality is listed as roughly 50%. Besides, the “radioactivity found in the brain, percent of injected dose (ID) per gram of brain tissue” value in series [4] (Balb/c (mouse), Fischer F344 (rat), mouse and rat, 3 min) was “Approximately 4%”. Moreover, the “calculated BBB permeability-surface area product (PS)” value in series [5] is on record as 136±12 μl/min/gm brain tissue. Further, the “form of vitamin C accumulating in the brains of DHA-injected animals that is ascorbic acid” value in series [6] is greater than 85%. Moreover, in series [7] (Balb/c, iv), the “brain radioactivity, maximum” value is given as 4.3 % of ID/gram brain tissue and the serum radioactivity concentration amounted to 8 % ID/gram serum. The brain radioactivity in series [7] (Balb/c, iv, 25 min) came out at 3.3%. Moreover, in the series with HL60 cells, the Michaelis-Menten constant (Km) (in general, the substrate concentration at which the rate is half of its maximum) is 850 µM. Also, in series [8] (aqueous solution), the stability result is “hydrolyses easily”. For the same compound, the stability entry in series [8] (low pH conditions) is listed as “stable”. Besides, in series [9], the “amount of vitamin C accumulated in the brain” value stood at 2.6 mg and the “vitamin C accumulated in the brain as share of injected dose” value is given as “approximately 11%”.

In the case of `O=CC[C@@H](O)[C@H](O)[C@H](O)CO` [D-deoxyglucose, 2-Deoxy-D-glucose, reference compound], the “calculated BBB permeability-surface area product (PS)” value in series [5] is on record as 44±3.2 μl/min/gm brain tissue. The “concentration necessary to block the transport of dehydroascorbic acid through GLUT1” value at GLUT1 [10] was “greater than 50 mM”. Besides, the Km with HL60 cells was 2500 µM.

In the case of `OC[C@H]1O[C@@](CO)(O[C@H]2O[C@H](CO)[C@@H](O)[C@H](O)[C@H]2O)[C@@H](O)[C@@H]1O` [sucrose, [fructose-1-^3H]-sucrose], in series [2], the “accumulation, percent of injected dose (TD) per gram of brain tissue” value was “only trace levels”. The “radioactivity found in the brain, percent of injected dose (ID) per gram of brain tissue” value in series [4] is reported as “only trace radioactivity”. In [7] (Balb/c, iv), the maximum brain accumulation came out at 0.4 % ID/gram brain tissue. Besides, the brain radioactivity in series [7] (Balb/c, iv, 15 min) is less than 0.1%.

`CC(C)C[C@H](N)C(=O)O` [leucine]: at GLUT1 [11], the “inhibition of uptake of dehydroascorbic acid in the brain” value is “no effect”.

As for `O=C[C@@H](O)[C@H](O)[C@@H](O)[C@@H](O)CO` [L-glucose], the “inhibition of uptake of dehydroascorbic acid in the brain” value against GLUT1 [11] was “no effect”.

In the case of `O=C1O[C@H]([C@@H](O)CO)C(O)=C1O` [ascorbic acid, L-[1-^14C]-ascorbic acid, reference compound], in series [1] (250 mg/kg pre-treatment), the neurological deficit score amounted to 2.7±0.7, the overall mortality turned out to be 50%, the post-ischemic cerebral perfusion was 13±1% and the “cerebral infarct volume (percentage of the ipsilateral hemisphere)” value was 58±4%. Moreover, the “accumulation, percent of injected dose (TD) per gram of brain tissue” value in [2] is reported as “only trace levels”. Also, the steady-state plasma concentration entry in [12] was “approximately 24 μM”. Besides, in series [3], the infarct volume is 46±6%, the mortality was found to be 64% and the “pre-sacrifice regional cerebral cortical perfusion” value worked out at 15±3%. In addition, the “radioactivity found in the brain, percent of injected dose (ID) per gram of brain tissue” value in [4] is listed as “only trace radioactivity”. Moreover, in series [7] (Balb/c, iv), the maximum brain accumulation is 0.4 % ID/gram brain tissue and the serum radioactivity concentration is on record as 27 % ID/gram serum. The brain radioactivity in [7] (Balb/c, iv, 2 hours) is given as 1.1 % ID/gram brain tissue. Besides, in series [7], the “transport into the brain” value was “no measurable transport”.
